Paper PMC10889360, “Therapeutic targeting Tudor domains in leukemia via CRISPR-Scan Assisted Drug Discovery” (Science Advances, 2024)
Where a name gives a salt, the structure may show the parent alone. Read-outs that look alike come from different tables or passages of the source. No end group written: not given here. Me3 = trimethyl (trimethyl-lysine)

Experiments:
MV4-11 = assay: cells; design: species or system MV4-11; U251; details: for viability at 10 µM: Homo sapiens, read-out: % viability; for % viability: 10 µM
Experimental: (§1) Compound information and source are listed in data S9. For Cpd_DC60, the initial small scale was obtained from the NCI Developmental Therapeutics Program (NCI/DTP) Open Chemicals Repository. Additional Cpd_DC60 was then custom synthesized by Ambinter (Orléans, France). MV4-11 cells were seeded at 20,000 cells per well, and U251 cells were seeded at 10,000 cells per well. Cells were cultured in 96-well plates at 100 μl per well and replated with fresh medium and compound every 3 days for up to 9 days. At each time point, 15 μl of the CellTiter-Glo 2.0 assay reagent (G9242, Promega) and 20 μl of resuspended cells were mixed in white flat-bottom 96-well plates (353296, Corning), and subsequently, the resultant luminescence was measured using an Infinite M1000 Pro plate reader (Tecan Trading AG, Switzerland). The relative CellTiter Glo signal was normalized to the control condition (DMSO) at each reading time point. Next, we examined the response of SGF29-dependent MV4-11 leukemia cells and the SGF29-independent U251 glioblastoma cells (see Fig. 1H) to these 190 candidate compounds (plus 15 reference compounds) using a CellTiter Glo screen. […] Compared to the pan-cancer inhibitors I-BET151 [inhibits the bromodomain of Bromodomain and Extra-Terminal motif (BET)] ([36]) and JQ1 (blocks BRD4 bromodomain) ([10]), we observed several known leukemia-targeting compounds (EPZ-5676, OICR-9429, A-485, and A-366) ([37]–[40]) within the 19 MV4-11 selective inhibitors (detailed in fig. S7A). On the basis of the selective killing against MV4-11 (Δ Score, i.e., differential CellTiter Glo % between MV4-11 and U251 on day 9), we then chose the top six ranked candidate compounds (Cpd_DC60, 201, 11, 157, 182, and 21) for further investigation (fig. S7B). […] Identification of SGF29 lead inhibitor by CRISPR-SADD workflow. (A) Schematic outline of the Sgf29 high-density CRISPR tiling scan in MLL-AF9-Cas9^+ cells. (B) Two-dimensional annotation of Sgf29 CRISPR-Scan. The blue line indicates the smoothened model of the CRISPR-Scan score derived from 147 sgRNAs (dots) targeting the coding exons of Sgf29. The median NCS scores of the positive control (red dotted line; defined as −1.0) and negative control (green dotted line; defined as 0.0) sgRNAs are highlighted. The blue dashed box indicates the SGF29-TTD domain. (C) Three-dimensional annotation Sgf29 CRISPR-Scan score relative to an x-ray crystal structural model of human SGF29-TTD (PDB ID: 3ME9). The CRISPR hypersensitive (red) aromatic cage of SGF29 Tudor_2 domain is highlighted. (D) Docking box (cube) defined by overlapping the PrankWeb predicted ligandable protein surface (surface contour marked by the dotted pink-line) with the CRISPR hypersensitive region of SGF29-TTD (red areas). (E) Heatmap showing the relative CellTiter Glo signal [% to dimethyl sulfoxide (DMSO) control] of MV4-11 and U251 cells incubated with 205 selected compounds (10 μM) for 3, 6, and 9 days. The effective killing was defined as less than 10% relative CellTiter Glo signal on day 9. Four clusters of compounds are identified, including the U251 selective (7 cpds), noneffective (157 cpds), general toxic (22 cpds), and MV4-11 selective (19 cpds) groups. (F and G) Western blot of (F) MOLM13 cells and (G) MV4-11 cells incubated with Cpd_DC60 (20 μM) for 48 hours. (H) Effect of Cpd_DC60 on the SGF29-TTD/H3K4me3 AlphaScreen signal. (I) Left: Docking simulation model of SGF29-TTD (colored by NCS) interacts with Cpd_DC60 (yellow). Right: Overlap of SGF29-TTD/H3K4me3 (cyan) cocrystal structure (PDB ID: 3ME9) with the predicted Cpd_DC60 (yellow) binding post on SGF29-TTD. The “aromatic cage” that consists of Y238, Y245, and F264 is indicated. a.a., amino acid. IC50, median inhibitory concentration.

U251 (U-251) = assay: cells; design: species or system MV4-11; U251; details: for viability at 10 µM: Homo sapiens, read-out: % viability; for % viability: 10 µM
Experimental: as §1

[1] = target: T1, recombinant His6-tagged SGF29 tandem Tudor domain (SGF29-TTD), residues Met114 to Lys293 (human, UniProt Q96ES7 114-293); assay: AlphaScreen or HTRF; AlphaScreen Histidine (Nickel Chelate) Detection Kit; 75 nM SGF29-TTD, 150 nM H3(1-18)K4me3-bio, 0.8% DMSO, acceptor/donor beads 20 ug/ml; 50 mM Hepes, 100 mM NaCl, 5 mM TCEP, pH 7.4; 25 C, 3 hours; signal blocked by the small molecule Cpd_DC60; details: both partners purified
T1 construct: SAGA-associated factor 29 (SGF29), human, tandem Tudor domain, residues Met114 to Lys293, UniProt Q96ES7; 22.9 kDa with the tag; Codon-optimised cDNA with synonymous changes only; No tag cleavage is described; the chain is detected by the nickel chelate AlphaScreen beads; The forward primer carries the end of a TEV site (ENLYFQS) from the vector before Met114; also called SGF29_Tudor 2; …
T1 sequence (looked up): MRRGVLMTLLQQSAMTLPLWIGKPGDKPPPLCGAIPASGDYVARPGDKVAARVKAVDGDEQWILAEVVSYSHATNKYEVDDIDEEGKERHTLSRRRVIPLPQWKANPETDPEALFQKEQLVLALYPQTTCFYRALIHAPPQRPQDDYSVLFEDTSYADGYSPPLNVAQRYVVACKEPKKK

**Q.** With `O=C(Cc1ccccc1)Nc1ccc2oc(-c3ccc4ccccc4c3)nc2c1` [compound 172, ZINC000001204199] as the molecule, how does the viability at 10 µM (MV4-11; MV4-11, 72 h) read?
**A.** 114%

**Q.** And the viability at 10 µM (MV4-11; MV4-11, 144 h)?
**A.** 101%

**Q.** What about the viability at 10 µM (MV4-11; MV4-11, 216 h) of the same molecule?
**A.** 78.6%

**Q.** And the viability at 10 µM (U251 (U-251); U-251, 72 h)?
**A.** 108%

**Q.** What about the viability at 10 µM (U251 (U-251); U-251, 144 h) of the same molecule?
**A.** 107%

**Q.** And the viability at 10 µM (U251 (U-251); U-251, 216 h)?
**A.** 112%

**Q.** `CC(C)(C)NCCCNC(=O)c1cccc(Br)c1` [compound 31, UNC2170 trifluoroacetate] was tested. Which viability at 10 µM (MV4-11; MV4-11, 72 h) did it give?
**A.** 120%

**Q.** What about the viability at 10 µM (MV4-11; MV4-11, 144 h) of the same molecule?
**A.** 93.1%

**Q.** What about the viability at 10 µM (MV4-11; MV4-11, 216 h) of the same molecule?
**A.** 125%

**Q.** What about the viability at 10 µM (U251 (U-251); U-251, 72 h) of the same molecule?
**A.** 111%

**Q.** What about the viability at 10 µM (U251 (U-251); U-251, 144 h) of the same molecule?
**A.** 110%

**Q.** And the viability at 10 µM (U251 (U-251); U-251, 216 h)?
**A.** 106%

**Q.** What does the source list for `Nc1c(Br)cc([N+](=O)[O-])cc1Br` [compound 240, ZINC000001641734]?
**A.** viability at 10 µM (MV4-11; MV4-11, 72 h): 95.7%; viability at 10 µM (MV4-11; MV4-11, 144 h): 86.7%; viability at 10 µM (MV4-11; MV4-11, 216 h): 89%; viability at 10 µM (U251 (U-251); U-251, 72 h): 110%; viability at 10 µM (U251 (U-251); U-251, 144 h): 106%; viability at 10 µM (U251 (U-251); U-251, 216 h): 115%

**Q.** Which viability at 10 µM (MV4-11; MV4-11, 72 h) does the source give for `Cc1ccc2nc(-c3ccc(N4C(=O)C5C6c7ccccc7C(c7ccccc76)C5C4=O)cc3)sc2c1` (stereo not shown) [compound 23, ZINC000008935041] here?
**A.** 41.6%

**Q.** And the viability at 10 µM (MV4-11; MV4-11, 144 h)?
**A.** 14.8%

**Q.** What about the viability at 10 µM (MV4-11; MV4-11, 216 h) of the same molecule?
**A.** 4.43%

**Q.** What about the viability at 10 µM (U251 (U-251); U-251, 72 h) of the same molecule?
**A.** 87.4%

**Q.** What about the viability at 10 µM (U251 (U-251); U-251, 144 h) of the same molecule?
**A.** 48.7%

**Q.** What about the viability at 10 µM (U251 (U-251); U-251, 216 h) of the same molecule?
**A.** 11%

**Q.** Which results are given for `COc1cc2c(cc1-c1c(C)noc1C)ncc1[nH]c(=O)n([C@H](C)c3ccccn3)c12` [compound 78, I-BET151]?
**A.** viability at 10 µM (MV4-11; MV4-11, 72 h): 0.356%; viability at 10 µM (MV4-11; MV4-11, 144 h): 0.218%; viability at 10 µM (MV4-11; MV4-11, 216 h): 0.24%; viability at 10 µM (U251 (U-251); U-251, 72 h): 14.5%; viability at 10 µM (U251 (U-251); U-251, 144 h): 0.804%; viability at 10 µM (U251 (U-251); U-251, 216 h): 0.227%

**Q.** Which results are given for `CCC[C@H](NC(=O)[C@@H]1[C@H]2CCC[C@H]2CN1C(=O)[C@@H](NC(=O)[C@@H](NC(=O)c1cnccn1)C1CCCCC1)C(C)(C)C)C(=O)C(=O)NC1CC1` [compound 76, Telaprevir (VX-950)]?
**A.** % viability (MV4-11; day 3, 72 h): 12.16%; % viability (MV4-11; day 6, 144 h): 1.882%; % viability (MV4-11; day 9, 216 h): 0.2706%; % viability (U251 (U-251); day 3, 72 h): 49.36%; % viability (U251 (U-251); day 6, 144 h): 17.7%; % viability (U251 (U-251); day 9, 216 h): 2.593%

B1: H3(1-18)K4me3-bio (biotinylated H3K4me3) peptide (peptide, UniProt P68431 2-19, looked up)
peptide: ARTK(Me3)QTARKSTGGKAPRK
modifications: also: biotin, position not given here
notes: histone H3, residues 1-18, trimethylated at lysine 4; source: synthetic peptide (Thermo Fisher Scientific)
**Q.** Does B1 bind [1]?
**A.** binds
